As usually defined, the Ki is a dissociation constant, usually derived from enzyme kinetics or from competition with a known ligand.

For 9 molecules, Ki results are on record in patent US20150175655A1 (priority 2012, published 2015).

One experiment concerns the target T1, NS3 genotype 3a protease (UniProt Q81258).
T1 construct: Purified NS3 protease domain (amino acids 1-181) of the genotype 1b and 3a virus were generated as above; fused on or other part: N-terminal hexahistidine tag and rTEV protease cleavage site (vector p28-N6H-Tev-NS3(181)3)
T1 sequence (Q81258 1033-1663): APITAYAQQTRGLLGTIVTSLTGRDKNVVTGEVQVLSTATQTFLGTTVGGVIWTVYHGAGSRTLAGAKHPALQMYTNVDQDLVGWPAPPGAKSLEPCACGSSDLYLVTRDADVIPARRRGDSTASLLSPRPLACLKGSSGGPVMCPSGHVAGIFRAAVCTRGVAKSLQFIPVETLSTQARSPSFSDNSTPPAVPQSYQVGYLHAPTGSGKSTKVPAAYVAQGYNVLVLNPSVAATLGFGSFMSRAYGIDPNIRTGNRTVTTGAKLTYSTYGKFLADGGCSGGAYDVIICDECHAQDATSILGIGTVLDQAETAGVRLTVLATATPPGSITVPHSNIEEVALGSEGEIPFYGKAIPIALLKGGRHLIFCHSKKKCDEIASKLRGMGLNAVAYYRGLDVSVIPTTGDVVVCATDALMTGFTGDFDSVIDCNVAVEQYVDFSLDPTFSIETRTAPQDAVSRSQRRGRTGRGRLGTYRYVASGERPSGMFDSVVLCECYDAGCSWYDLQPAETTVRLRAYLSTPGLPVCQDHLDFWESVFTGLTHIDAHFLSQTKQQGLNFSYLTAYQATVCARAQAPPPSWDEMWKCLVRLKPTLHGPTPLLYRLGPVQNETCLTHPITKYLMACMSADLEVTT
Kind of experiment: Ki determination, NS3 protease genotype 3a (fluorogenic depsipeptide substrate). The experiment is classed as biochemical, hepatitis C virus. As to conditions: 200 pM enzyme, 20 μM NS4A peptide, 2 μM substrate, read-out: Ki 3A. The procedure, abridged: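 Refolded His-tagged NS3 protease domain (aa 1-181, genotype 3a) at 200 pM with 20 μM NS4A peptide was pre-incubated 1 h at RT with inhibitor (100 nM–5 pM, 3-fold), then 2 μM FRET depsipeptide substrate was added in HEPES/40% glycerol/10% DMSO buffer. Steady-state rates over 90-120 min (ex 340/em 490 nm) versus inhibitor concentration gave Ki.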
For the molecule `COc1ccc2nc3c(nc2c1)O[C@H]1CN(C(=O)[C@H](C(C)(C)C)NC(=O)O[C@@H]2CCC[C@H]2CCCCC3)[C@H](C(=O)N[C@]2(C(=O)NS(=O)(=O)C3CC3)C[C@H]2C(F)F)[C@@H]1C` [Example 28, (3aR,7S,10S,11S,12R,24aR)-7-tert-butyl-N-[(1R,2R)-1-[(cyclopropylsulfonyl)carbamoyl]-2-(difluoromethyl)cyclopropyl]-16-methoxy-11-methyl-5,8-dioxo-1,2,3,3a,5,6,7,8,11,12,20,21,22,23,24,24a-hexadecahydro-10H-9,12-methanocyclopenta[18,19][1,10,3,6]dioxadiazacyclononadecino[11,12-b]quinoxaline-10-carboxamide], the Ki was 0.08 nM. Same read-out and setting: next, `CC[C@@H]1[C@@H]2CN(C(=O)[C@H](C(C)(C)C)NC(=O)O[C@@H]3C[C@H]3CCCCC(F)(F)c3nc4ccc(OC(F)F)cc4nc3O2)[C@@H]1C(=O)N[C@]1(C(=O)NS(=O)(=O)C2(C)CC2)C[C@H]1C(F)F` [Example 85, (1aR,5S,8S,9S,10R,22aR)-5-tert-butyl-14-(difluoromethoxy)-N-[(1R,2R)-2-(difluoromethyl)-1-{[(1-methylcyclopropyl)sulfonyl]carbamoyl}cyclopropyl]-9-ethyl-18,18-difluoro-3,6-dioxo-1,1a,3,4,5,6,9,10,18,19,20,21,22,22a-tetradecahydro-8H-7,10-methanocyclopropa[18,19][1,10,3,6]dioxadiazacyclononadecino[11,12-b]quinoxaline-8-carboxamide]: 0.03 nM.

As for `CC[C@@H]1[C@@H]2CN(C(=O)[C@H](C(C)(C)C)NC(=O)O[C@@H]3C[C@H]3CCCCCc3nc4ccc(OC)cc4nc3O2)[C@@H]1C(=O)N[C@]1(C(=O)NS(=O)(=O)C2(C)CC2)C[C@H]1CC(F)F` [Example 67, (1aR,5S,8S,9S,10R,22aR)-5-tert-butyl-N-[(1R,2S)-2-(2,2-difluoroethyl)-1-{[(1-methylcyclopropyl)sulfonyl]carbamoyl}cyclopropyl]-9-ethyl-14-methoxy-3,6-dioxo-1,1a,3,4,5,6,9,10,18,19,20,21,22,22a-tetradecahydro-8H-7,10-methanocyclopropa[18,19][1,10,3,6]dioxadiazacyclononadecino[11,12-b]quinoxaline-8-carboxamide], the Ki was determined as 0.32 nM. Take `CC[C@@H]1[C@@H]2CN(C(=O)[C@H](C(C)(C)C)NC(=O)O[C@@H]3C[C@H]3CCCCC(F)(F)c3nc4ccccc4nc3O2)[C@@H]1C(=O)N[C@]1(C(=O)NS(=O)(=O)C2CC2)C[C@H]1CC` [Example 54, (1aR,5S,8S,9S,10R,22aR)-5-tert-butyl-N-{(1R,2R)-1-[(cyclopropylsulfonyl)carbamoyl]-2-ethylcyclopropyl}-9-ethyl-18,18-difluoro-3,6-dioxo-1,1a,3,4,5,6,9,10,18,19,20,21,22,22a-tetradecahydro-8H-7,10-methanocyclopropa[18,19][1,10,3,6]dioxadiazacyclononadecino[11,12-b]quinoxaline-8-carboxamide]: the Ki is 0.5 nM. Still for that read-out and setting: the value for `CC[C@@H]1[C@@H]2CN(C(=O)[C@H](C(C)(C)C)NC(=O)O[C@@H]3C[C@H]3CCCCCc3nc4ccc(OC)cc4nc3O2)[C@@H]1C(=O)N[C@]1(C(=O)NS(=O)(=O)C2(F)CC2)C[C@H]1C(F)F` [Example 74, (1aR,5S,8S,9S,10R,22aR)-5-tert-butyl-N-[(1R,2R)-2-(difluoromethyl)-1-{[(1-fluorocyclopropyl)sulfonyl]carbamoyl}cyclopropyl]-9-ethyl-14-methoxy-3,6-dioxo-1,1a,3,4,5,6,9,10,18,19,20,21,22,22a-tetradecahydro-8H-7,10-methanocyclopropa[18,19][1,10,3,6]dioxadiazacyclononadecino[11,12-b]quinoxaline-8-carboxamide] was 0.12 nM; that for `CC[C@@H]1[C@@H]2CN(C(=O)[C@H](C(C)(C)C)NC(=O)O[C@@H]3C[C@H]3CCCCCc3nc4ccc(OC)cc4nc3O2)[C@@H]1C(=O)N[C@]1(C(=O)NS(=O)(=O)C2(C)CC2)C[C@H]1C` [Example 73, (1aR,5S,8S,9S,10R,22aR)-5-tert-butyl-9-ethyl-14-methoxy-N-[(1R,2R)-2-methyl-1-{[(1-methylcyclopropyl)sulfonyl]carbamoyl}cyclopropyl]-3,6-dioxo-1,1a,3,4,5,6,9,10,18,19,20,21,22,22a-tetradecahydro-8H-7,10-methanocyclopropa[18,19][1,10,3,6]dioxadiazacyclononadecino[11,12-b]quinoxaline-8-carboxamide] was 0.82 nM.

Staying with this experiment, now noted: read-out: Ki 3A, 200 pM enzyme, 20 μM NS4A peptide, 2 μM substrate.
As for `COc1ccc2nc3c(nc2c1)O[C@H]1CN(C(=O)[C@H](C(C)(C)C)NC(=O)O[C@@H]2C[C@H]2CCCCC3)[C@H](C(=O)N[C@]2(C(=O)NS(=O)(=O)C3(C)CC3)C[C@H]2CC(F)F)[C@@H]1C` [Example 25, (1aR,5S,8S,9S,10R,22aR)-5-tert-butyl-N-[(1R,2S)-2-(2,2-difluoroethyl)-1-{[(1-methylcyclopropyl)sulfonyl]carbamoyl}cyclopropyl]-14-methoxy-9-methyl-3,6-dioxo-1,1a,3,4,5,6,9,10,18,19,20,21,22,22a-tetradecahydro-8H-7,10-methanocyclopropa[18,19][1,10,3,6]dioxadiazacyclononadecino[11,12-b]quinoxaline-8-carboxamide], the Ki was found to be 0.39 nM.

On to `CC[C@@H]1C[C@]1(NC(=O)[C@@H]1[C@H](C)[C@@H]2CN1C(=O)[C@H](C(C)(C)C)NC(=O)O[C@@H]1C[C@H]1CCCCCc1nc3ccc(OC)cc3nc1O2)C(=O)NS(=O)(=O)C1CC1` [Example 20, (1aR,5S,8S,9S,10R,22aR)-5-tert-butyl-N-{(1R,2R)-1-[(cyclopropylsulfonyl)carbamoyl]-2-ethylcyclopropyl}-14-methoxy-9-methyl-3,6-dioxo-1,1a,3,4,5,6,9,10,18,19,20,21,22,22a-tetradecahydro-8H-7,10-methanocyclopropa[18,19][1,10,3,6]dioxadiazacyclononadecino[11,12-b]quinoxaline-8-carboxamide], for which the inhibitory constant (Ki) is 0.53 nM. Same read-out and setting: next, `CC[C@@H]1C[C@]1(NC(=O)[C@@H]1[C@H](C)[C@@H]2CN1C(=O)[C@H](C(C)(C)C)NC(=O)O[C@@H]1C[C@H]1CCCCCc1nc3ccc(OC)cc3nc1O2)C(=O)NS(=O)(=O)C1(C)CC1` [Example 21, (1aR,5S,8S,9S,10R,22aR)-5-tert-butyl-N-[(1R,2R)-2-ethyl-1-{[(1-methylcyclopropyl)sulfonyl]carbamoyl}cyclopropyl]-14-methoxy-9-methyl-3,6-dioxo-1,1a,3,4,5,6,9,10,18,19,20,21,22,22a-tetradecahydro-8H-7,10-methanocyclopropa[18,19][1,10,3,6]dioxadiazacyclononadecino[11,12-b]quinoxaline-8-carboxamide]: 0.45 nM.
